Patent US20040197784A1, “Retinoid inducible proteins of vascular smooth muscle cells and uses thereof” (priority 2001, published 2004)
Each block holds one molecule with its values, some of them ahead of it.

Tests used:
RASMC [1] = test: Northern blotting of atRA-induced retinoid-response gene mRNA in cultured RASMC; details: for expression of this gene set (the 14 atRA-inducible clones): Northern blot; for Peak Fold Induction: 2×10^−6 mol/L atRA
Description: Rat aortic smooth muscle cells (“RASMC”) were stimulated with atRA for the indicated times and then processed for total RNA isolation and Northern blotting. Two duplicate blots were then sequentially hybridized to each of the 14 cDNAs. Scanning densitometry was performed at each time point and normalized to the corresponding GAPDH signal to ascertain the peak mRNA induction value listed in Table 2.
Cultured rat aortic SMC (RASMC) were derived from aortas of male Sprague-Dawley rats by a combined explant-enzymatic digestion procedure as described previously (Miano et al., “Expression of the Smooth Muscle Cell Calponin Gene Marks the Early Cardiac and Smooth Muscle Cell Lineages During Mouse Embryogenesis,” J. Biol. Chem. 271:7095-7103 (1996), which is hereby incorporated by reference in its entirety). These cells were grown in Dulbecco's Modified Eagle's Medium (DMEM) supplemented with 10% fetal bovine serum (FBS), 2 mM L-glutamine and antibiotics. […] Unless indicated otherwise, cells were grown on 100-mm dishes and treated with either 2×10^−mol/L all-trans-retinoic acid (atRA) or an equal volume of dimethylsulfoxide (DMSO) for various times when culture was 70-80% confluent.
Total RNA from cultured RASMC and rat tissues was isolated by the acid phenol-guanidinium isothiocyanate method (Chomczynski et al., “Single-Step Method of RNA Isolation by Acid Guanidinium Thiocyanate-Phenol-Chloroform Extraction,” Anal. Biochem. 162:156-159 (1987), which is hereby incorporated by reference in its entirety). […] Independent samples of RNA were also obtained from RASMC treated for 3, 6, 12, 24, 48, 72, 96, and 120 hr with 2×10^−6 mol/L atRA to obtain a temporal pattern of expression for each positive clone. In some experiments the effects of cycloheximide (CHX, 2.5 μg/ml) on atRA-induced gene expression were examined. […] Total RNA was size-fractionated in 1.2% agarose-formaldehyde gels, transferred to nylon membranes and then hybridized and washed following standard procedures (ExpressHyb™, CLONTECH, Palo Alto, Calif.). A rat glyceraldehyde phosphate dehydrogenase (GAPDH) or 18 S probe was used as an internal control for RNA loading. Autoradiography was performed and exposure times varied so that band intensities could be reliably quantitated using NIH Image 1.60 analysis software.

RASMC [2] = test: RISC mRNA expression after atRA, Northern blotting, RASMC; assay type: cell-based, rat
Description: FIGS. 9A-B show the induction of retinoid inducible serine carboxypeptidase (“RISC”) mRNA expression by atRA in a time-dependent manner. Total RNA isolated from RASMC treated with 2.0 μM atRA for 0, 3, 6, 12, 24, 48, 72, 96, 120 h was analyzed by Northern blotting with a rat RISC cDNA probe. […] Blots were also probed with GAPDH as a control for equal loading for each lane. Data shown are representative of two independent experiments.
(§1) 10-20 μg of total RNA from RASMC, PAC-1 SMC, hCASMC or rat tissues was fractionated on 1.1% agarose gel in the presence of 0.66 mol/L formaldehyde, transferred to nylon membrane, and hybridized with a 405 nt RISC cDNA probe labeled with α-^32P-dCTP. For human tissue Northern blotting, a Human Multiple Tissue Northern Blot was obtained from CLONTECH and hybridized with a human RISC DNA probe, cloned from a human BAC (AC007114; obtained from Research Genetics, Inc., Huntsville, Ala.) by PCR. Hybridizations were carried out in Rapid-hyb buffer (Amersham Life Science, Piscataway, N.J.) or Expresshyb Hybridization Solution (CLONTECH, Palo Alto, Calif.) containing labeled probe (˜2×10^6 cpm/ml) at 62-68° C. for 1-2 h or overnight, depending on the probe used. The blots were then washed under stringent conditions and exposed to Kodak XAR films for different lengths of time. Housekeeping genes used as internal controls for equal RNA loading included glyceraldehyde 3-phosphate dehydrogenase (GAPDH), 18 S rRNA, and β-actin.

[3] = test system: de novo protein synthesis; test: CHX effect on de novo protein synthesis and cytotoxicity; assay type: cell-based; details: CHX 2.5 μg/ml
Description: In some experiments the effects of cycloheximide (CHX, 2.5 μg/ml) on atRA-induced gene expression were examined.

RASMC [4] = test: Cycloheximide (CHX) effects on atRA inducible gene expression, Northern blot; assay type: cell-based, rat; details: 2.5 μg/ml CHX
Description: All 4 genes show atRA-induced mRNA expression after 24 hr stimulation. […] SALF and Src-Suppressed C Kinase Substrate (“SSeCKS”) mRNA induction, however, is protein synthesis-independent. Refer to Table 2 for a complete summary of the CHX sensitivity studies.
To determine whether atRA-induced gene expression required de novo protein synthesis, rat aorta smooth muscle cell tissue was incubated with atRA in the absence or presence of cycloheximide (“CHX”) and then measured the expression of each atRA-inducible gene. […] On the other hand, atRA-induced Stoned B/TFIIAα/β-like factor (“SALF”) and Src Suppressed C Kinase Substrate (“SSeCKS”) mRNA were not blocked with CHX. In fact, there was a slight super-induction of these genes with CHX, shown in FIG. 6, which is a common characteristic of immediate early genes.

PAC-1 SMC = test: RISC mRNA expression after atRA, Northern blotting, PAC-1 SMC; assay type: cell-based, rat
Description: as §1

hCASMC = test: RISC mRNA expression after atRA, Northern blotting, hCASMC; assay type: cell-based, human
Description: as §1

ERK = test: RISC attenuation of ERK activity (phospho-ERK immunoblot); assay type: cell-based, rat; details: RISC expressing cells vs mock cells; 30 minutes after serum stimulation
Description: Stable cell lines prepared according to Example 3 were grown to subconfluence and made quiescent by serum withdrawal (typically 0.5% FBS for 24-48 hours). Cells were then stimulated with serum or a purified growth factor (PDGF-BB) to stimulate the ERK pathway. At selected times following such stimulation, standard cell extracts were prepared to analyze the activation of ERK as measured by its phosphorylated state with a phospho-specific antibody.

PAC1 SMC = test: Growth of PAC1 SMC stably transfected with RISC (cell counts over 5 days); assay type: cell-based, rat; details: three stably transfected RISC cell lines, 10% FBS, vs empty vector (mock)
Description: Rat or human RISC is cloned into a suitable mammalian expression plasmid including, but not limited to, pEF1/V5-His, and verified for expression by Western blotting (using an antibody that binds the His tag of the RISC-His fusion protein) of transiently-transfected cells. For transient transfection, subconfluent cells are overlayed with a DNA-calcium-phosphate coprecipitate containing the RISC expression plasmid and then allowed to incubate overnight The following day, cells are washed with phosphate-buffered saline and re-fed fresh growth medium for an additional 24-48 hours whereupon standard cell lysates are made for protein analysis via Western blotting. […] Following two weeks of selection in G418, resistant cell “clones” cartying the RISC-His fusion protein are isolated and expanded for further analysis.
Each of three stably transfected cell lines were grown in the presence of 10% FBS for 5 days and on each day total cell numbers were calculated with a hemocytometer. […] A graph illustrating the effects on SMC growth is shown at FIG. 17.

Molecule: CC1=C(/C=C/C(C)=C/C=C/C(C)=C/C(=O)Nc2ccc(O)cc2)C(C)(C)CCC1 [4-Hydroxyphenylretinamide]
- expression of this gene set (the 14 atRA-inducible clones) (RASMC [1]): elevated

Molecule: CC1=C(/C=C/C(C)=C/C=C/C(C)=C\C(=O)O)C(C)(C)CCC1 [13-cis RA]
- expression of this gene set (the 14 atRA-inducible clones) (RASMC [1]): elevated

Molecule: C[C@@H]1C[C@@H]([C@H](O)CC2CC(=O)NC(=O)C2)C(=O)[C@@H](C)C1 [CHX, cycloheximide]
- CHX effect on atRA-increased RISC expression (RASMC [2]; 24 hours following treatment): No change in RISC expression
- CHX effect on atRA-increased RISC expression (RASMC [2]; 48 hr following atRA treatment): blocked increased RISC expression
- overt cytotoxicity [3]: without any signs of overt cytotoxicity
- reduction of de novo protein synthesis [3]: more than 90%
- CHX Inhibit (atRA-induced mRNA expression) (RASMC [4]; Cathepsin-L mRNA): Yes
- CHX Inhibit (atRA-induced mRNA expression) (RASMC [4]; Ceruloplasmin mRNA): Yes
- CHX Inhibit (atRA-induced mRNA expression) (RASMC [4]; Endolyn mRNA): No
- CHX Inhibit (atRA-induced mRNA expression) (RASMC [4]; Epithelin mRNA): Yes
- CHX Inhibit (atRA-induced mRNA expression) (RASMC [4]; Importin α mRNA): Yes
- CHX Inhibit (atRA-induced mRNA expression) (RASMC [4]; LDH-B mRNA): Yes
- CHX Inhibit (atRA-induced mRNA expression) (RASMC [4]; LOX-1 mRNA): No
- CHX Inhibit (atRA-induced mRNA expression) (RASMC [4]; RDH mRNA): Yes
- CHX Inhibit (atRA-induced mRNA expression) (RASMC [4]; SALF mRNA): not blocked and No
- CHX Inhibit (atRA-induced mRNA expression) (RASMC [4]; SSAT mRNA): attenuated and completely blocked and Yes
- CHX Inhibit (atRA-induced mRNA expression) (RASMC [4]; SSeCKS mRNA): not blocked and No
- CHX Inhibit (atRA-induced mRNA expression) (RASMC [4]; VCAM-1 mRNA): Yes
- CHX Inhibit (atRA-induced mRNA expression) (RASMC [4]; tTG mRNA): No
- CHX Inhibit (atRA-induced mRNA expression) (RASMC [4]; α8-integrin mRNA): attenuated and completely blocked and Yes

- Peak Fold Induction (RASMC [1]; Cathepsin-L mRNA, peak at 72 hr, relative to 0 time point): 3.5 (72 hr) fold
- Peak Fold Induction (RASMC [1]; Ceruloplasmin mRNA, peak at 72 hr, relative to 0 time point): 2.0 (72 hr) fold
- Peak Fold Induction (RASMC [1]; Endolyn mRNA, peak at 96 hr, relative to 0 time point): 2.0 (96 hr) fold
- Peak Fold Induction (RASMC [1]; Epithelin mRNA, peak at 48 hr, relative to 0 time point): 2.9 (48 hr) fold
- Peak Fold Induction (RASMC [1]; Importin α mRNA, peak at 12 hr, relative to 0 time point): 4.0 (12 hr) fold
- Peak Fold Induction (RASMC [1]; LDH-B mRNA, peak at 24 hr, relative to 0 time point): 4.6 (24 hr) fold
- Peak Fold Induction (RASMC [1]; LOX-1 mRNA, peak at 3 hr, relative to 0 time point): 7.2 (3 hr) fold
- Peak Fold Induction (RASMC [1]; RDH mRNA, peak at 48 hr, relative to 3 hr time point as baseline): >2.8 (48 hr) fold
- Peak Fold Induction (RASMC [1]; SALF mRNA, peak at 3 hr, relative to 0 time point): 4.1 (3 hr) fold
- Peak Fold Induction (RASMC [1]; SSAT mRNA, peak at 48 hr, relative to 0 time point): 4.8 (48 hr) fold
- Peak Fold Induction (RASMC [1]; SSeCKS mRNA, peak at 12 hr, relative to 0 time point): 4.8 (12 hr) fold
- Peak Fold Induction (RASMC [1]; VCAM-1 mRNA, peak at 96 hr, relative to 0 time point): 2.5 (96 hr) fold
- Peak Fold Induction (RASMC [1]; tTG mRNA, peak at 12 hr, relative to 3 hr time point as baseline): >4.0 (12 hr) fold
- Peak Fold Induction (RASMC [1]; α8-integrin mRNA, peak at 72 hr, relative to 0 time point): 2.4 (72 hr) fold
Molecule: CC1=C(/C=C/C(C)=C/C=C/C(C)=C/C(=O)O)C(C)(C)CCC1 [atRA, all-trans-retinoic acid]
- time of peak increase in RISC mRNA following atRA stimulation (RASMC [2]): around 4 days
- RISC mRNA levels (RASMC [2]; 2.0 μM atRA, fresh atRA applied daily, 5 day time course): increased progressively
- RISC mRNA following atRA stimulation (PAC-1 SMC): increases in RISC mRNA
- RISC mRNA following atRA stimulation (hCASMC): increases in RISC mRNA

B1: RISC: retinoid inducible serine carboxypeptidase protein, expressed as RISC-His fusion protein in stably transfected PAC1 SMC (protein, UniProt Q920A6 29-452, looked up)
Retinoid-inducible serine …: LNWREQEGKEVWDYVTVREDARMFWWLYYATNPCKNFSELPLVMWLQGGPGGSSTGFGNFEEIGPLDTRLKPRNTTWLQWASLLFVDNPVGTGFSYVNTTDAYAKDLDTVASDMMVLLKSFFDCHKEFQTVPFYIFSESYGGKMAAGISLELHKAIQQGTIKCNFSGVALGDSWISPVDSVLSWGPYLYSVSLLDNKGLAEVSDIAEQVLNAVNKGFYKEATQLWGKAEMIIEKNTDGVNFYNILTKSTPDTSMESSLEFFRSPLVRLCQRHVRHLQGDALSQLMNGPIKKKLKIIPDDVSWGAQSSSVFISMEEDFMKPVIDIVDTLLELGVNVTVYNGQLDLIVDTIGQESWVQKLKWPQLSRFNQLKWKALYTNPKSSETSAFVKSYENLAFYWILKAGHMVPADQGDMALKMMRLVTQQE
modifications: His tag
notes: retinoid inducible serine carboxypeptidase protein, expressed as RISC-His fusion protein in stably transfected PAC1 SMC
- phospho-ERK activation (ERK): activated less phospho-ERK
- cell growth (total cell numbers by hemocytometer) (PAC1 SMC): significant inhibition in cell growth
